Positions of bridges follow the written chain, without caps; N, C: chain ends.
Assays:
[1] = system: human proximal tubule epithelial cells (HK2); experiment: D-glucose-induced EMT assay, E-cadherin immunofluorescence with colorimetric image analysis; type: cell-based; details: D-glucose 50 mM
Procedure: Chronic hyperglycemia is a known cause of renal fibrosis in type 2 diabetes. The assay in this example induces the transdifferentiation from the epithelial to the mesenchymal phenotype (EMT) in human proximal tubule epithelial cells (HK2) by exposing them to high levels of D-glucose (100 mM and 200 mM). […] Exposure to 100 mM D-glucose results in the loss of E-cadherine expression as evidenced by the loss of the fluorescene signal. Using this assay test compounds are evaluated based on their ability to inhibit the EMT processes in the presence of high levels of D-glucose. FIGS. 4-16 are fluorescence micrographs of HK2 cells exposed to 100 mM D-glucose and 100 uM of SEQ IS NOs 1 through 11, respectively. Note that all but SEQ ID NOs 10 and 11 were able to preserve the epithelial phenotype (i.e., inhibit the EMT).
Results are provided in the context of FIG. 1 and Table 3, below. In Table 3 below, compound response is scored using image analysis as described herein in the method of Methods and Materials, part C. A 0% response corresponds to the signal for 100 mM (or 200 mM) D-glucose (untreated) while the 100% response corresponds to the signal for media in the absence of D-glucose.
It has been shown that transdifferentiation of proximal tubular epithelial cells is a critical step in the development of renal fibrosis, and that this is associated with a loss of the epithelial phenotypic marker, E-cadherin expression. This provides the basis for the development of a cell-based screening assay in which high concentrations of D-Glucose (50-100 mM) are used to induce a loss of E-cadherin expression in human renal proximal tubular epithelial (HK-2) cells, and compounds are tested for their ability to reverse the loss E-cadherin expression.
Materials: • Human proximal tubular epithelial cells, HK-2 (ATCC #CRL-2190) • Serum-free keratinocyte medium (GIBCO #17005-042, K-SFM) • Epidermal growth factor (EGF: 5 ng/mL) • Bovine pituitary extract (BPE: 40 ug/mL) • Primary antibody, Mouse IgG anti-E-cadherin (R&D Systems # MAB1838) • BSA [Sigma #A7030] • secondary antibody, FITC-conjugated Goat anti-mouse IgG (Fab2) fragment (Sigma-Aldrich # F-2653) • Paraformaldehyde (10%)) • Triton X-100 (Sigma # T-9284) • PBS (Fisher Scientific #BP399-1) • D-PBS (Invitrogen #14190-144) • Polypropylene tips (Axygen, Inc. 0.5-10 uL, cat # T-300-L-R; 1-200 uL, Cat # T-200-L-R; 1-1000 uL, Cat # T-1000-C-L-R) • 50 mL polypropylene culture tubes (Fisher Scientific, cat #06-443-18) • 24-well Coster cell culture plates (Fisher Scientific #07-200-84)
Reagents & Test Samples: • Positive control: BMP-7, assayed at concentrations 0.1 and 1 ug/mL • Test compounds (peptides): each tested at final concentrations 100 uM and 200 uM.
Assay Procedure for Cell Culture Assay: • Run assay in 24-well culture plates. • Seed HK-2 cells at a density between 25,000 and 30,000 cells per well in lmL K-SFM medium with supplements added (growth medium) • Incubate HK-2 cells for 24 hours at 37° C., and let cells attach the plate • Next Day afternoon, change the medium with K-SFM medium with no added supplements (serum free medium) in all wells except the first two control wells. • Continue incubating HK-2 cells overnight at 37° C. • Next Day, aspirate the medium from all wells. Incubate the cells in growth medium (first two control wells) or expose them to test compounds for 2 hours at 37° C. Final concentrations of each Test compound are 100 and 200 uM. BMP-7 serves as a positive control in the assay. • After incubation, add D-glucose to all wells except first two control wells. Final concentrations of D-Glucose are 50 and 100 mM. • Incubate HK-2 cells for 60 hours at 37° C. • Aspirate the medium from all wells. To the wells, add pre-warmed growth medium or serum free medium containing D-glucose alone or D-glucose and test compound or D-glucose and BMP-7. Final concentrations of D-Glucose and Test compound are the same as above. • Continue incubating HK-2 cells for 24 hours at 37° C. […]

[2] = system: human proximal tubule epithelial cells (HK2); experiment: Cisplatin-induced apoptosis in HK-2 cells (Annexin V); type: cell-based; details: THR-123 250 μM, cisplatin 10 μM
Procedure: FIG. 50A-FIG. 50D THR-123 inhibits Cisplatin-induced apoptosis in human proximal tubule epithelial cells (HK2). Immortalized human proximal tubular epithelial-derived HK-2 (Human Kidney-2) cells are passaged on 24-well plates (˜25,000 to 30,000 cells/well). The cells are exposed either K-SFM media alone or K-SFM medium containing THR-123. BMP7 serves as a positive control of experiment. Two hours after incubation, cells are exposed to cisplatin for 60 hours (FIG. 50A-FIG. 50C). FIG. 50D. Cells are exposed to cisplatin for 6 hours and subsequently THR-123 was added into the media. Apoptosis is determined by staining of AnnexinV-FITC Apoptosis detection kit (TACS Annexin V-FITC) (R&D Systems), followed by fluorescence microscopy. Final concentration: THR-123 250 μM, BMP-7 1 μg/ml, cisplatin 10 μm.
HK-2 cells are passaged on 24-well plates (25,000-30,000 cell/well). Once cells attached on the well, cells are exposed either K-SFM media alone or K-SFM medium containing THR-123. BMP7 serves as a positive control of experiment. Two hours after incubation, cells are exposed to cisplatin for 60 hours. Apoptosis is determined by staining of AnnexinV-FITC, followed by fluorescence microscopy. Final concentration: THR-123 250 μM, BMP7 1 μg/ml, cisplatin 10 μM.

(H)-CYFDDSSNVLCKKYRS-(OH) (H-CYFDDSSNVLCKKYRS-OH; disulfide 1-11; SMILES CC(C)C[C@@H]1NC(=O)[C@H](C(C)C)NC(=O)[C@H](CC(N)=O)NC(=O)[C@H](CO)NC(=O)[C@H](CO)NC(=O)[C@H](CC(=O)O)NC(=O)[C@H](CC(=O)O)NC(=O)[C@H](Cc2ccccc2)NC(=O)[C@H](Cc2ccc(O)cc2)NC(=O)[C@@H](N)CSSC[C@@H](C(=O)N[C@@H](CCCCN)C(=O)N[C@@H](CCCCN)C(=O)N[C@@H](Cc2ccc(O)cc2)C(=O)N[C@@H](CCCNC(=N)N)C(=O)N[C@@H](CO)C(=O)O)NC1=O) [SEQ ID NO: 1]
prevention of D-glucose induced loss of epithelial phenotype (E-cadherin expression) [1]: effectively prevents
cisplatin induced apoptosis [2]: inhibited
